Reference: patent US20250326771A1, “PIPERAZINE DERIVATIVES USEFUL IN HIV THERAPY” (VIIV HEALTHCARE COMPANY, priority 2022, published 2025)

Legend:
[1] = tested on: Jurkat HIV-luciferase clones; experiment: Jurkat latency reversal assay; assay type: cell-based; conditions: Homo sapiens, 48 h; Jurkat latency reversal assay potency; read-out: Jurkat pEC50 (converted)
Experimental: Jurkat HIV-luciferase clones were maintained in RPMI medium 1640 (Gibco by Life Technologies) containing 10% (vol/vol) fetal bovine serum (SAFC/Sigma-Aldrich) and 25 units/mL penicillin, 25 units/mL streptomycin (Gibco by Life Technologies), and were split 1:4 every 3 to 4 days to maintain a cell density of ˜0.3 to 1 million cells/mL. The Jurkat clones were maintained with the addition of 500 nM EFV in the medium. Three Jurkat cell clones (C16, 115, and N6), each harboring one or two integrated HIV proviruses expressing the luciferase reporter gene, were added at equal amounts for a total of 5,000 cells per well to 384-well plates containing compound titrations. Dose-response testing was performed on compounds dissolved in dimethyl sulfoxide (DMSO; Fisher Scientific, Merelbeke, Belgium) dispensed in duplicate serial 3-fold, 14-point titrations using a D300e Digital Droplet Dispenser (Hewlett-Packard) to give final assay concentrations of 10 μM to […] in 50 μL of medium at 0.5% DMSO (vol/vol) final concentration. Cells and compound were incubated at 37° C. for 48 hours, unless otherwise indicated, followed by the addition of 20 μL of Steady-Glo® Luciferase (Promega). Luminescence resulting from the induction of the virally expressed luciferase was measured using an EnVision 2102 Multilabel Plate Reader (Perkin Elmer). Dose-response relationships were analyzed with GraphPad PRISM 6 using a four-parameter logistic regression model to calculate the concentration of compound that gives half-maximal response (EC50) and the maximal percent activation compared to the vehicle control.

cIAP1-BIR3 = cIAP1-BIR3 (Homo sapiens (Human), UniProt Q13490); experiment: BIR binding assay (FRET competition), cIAP1 BIR3; conditions: for cIAP1 BIR3 vs BIR2 separation window: fold separation (FS) for cIAP1
Experimental: (§1) The BIR domain binding assays are FRET based competition assays that utilize His-tagged versions of each of the BIR2 and BIR3 domains from cIAP1, cIAP2, and XIAP (each domain assayed separately) each at a custom optimal concentration and a probe, 200 nM SMAC/DIABLO peptide […] labelled with AlexaFluor647 (part #crb 1110326h, Discovery Peptides). The assay is conducted in 50 mM HEPES, […], 1 mM CHAPS, 5% Glycerol, 1 mM DTT, in dI water with a final pH of 7.4 and final volume of 20 uL. Final protein domain concentrations are: 50 nM cIAP1-BIR3 (Part #APT-11-370 Reaction Biology), 100 nM XIAP-BIR3 (Part #APT-11-351 Reaction Biology), 200 nM XIAP-BIR2 (Part #APT-11-470 Reaction Biology), 325 nM cIAP2-BIR2 (Part #APT-11-489 Reaction Biology), 50 nM cIAP2-BIR3 (Part #APT-11-372 Reaction Biology), 325 nM cIAP1-BIR2 (Part #APT-11-487 Reaction Biology). Compounds were plated using a HP Tecan D300 printer in a final total volume of 202 nl and DMSO concentration normalized across the 15-point, 3-fold dilution series. Peptide and probe were prepared at 2× relative to the concentrations above in binding buffer, 10 uL added to the prepared compound plates, and incubated for 60 minutes. LANCE Eu-W1024 (part #AD0401 Perkin Elmer #, vendor) was prepared at 2× concentration in binding buffer for final concentration of 2 nM, 10 uL added to each well, and plates incubated for 30 minutes. Plates were read on an ENVISION multifunction plate reader with […] laser excitation to obtain the 615 nm/665 nm emission ratio as indicative of probe:protein proximity. Data was analyzed using GraphPad PRISM and curves fit using log(inhibitor) vs. response—Variable slope (four […] method to obtain IC50 and pIC50 values.

cIAP2-BIR3 = cIAP2-BIR3 (Homo sapiens (Human), UniProt Q13489); experiment: BIR binding assay (FRET competition), cIAP2 BIR3
Experimental: as §1

cIAP1-BIR2 = cIAP1-BIR2 (Homo sapiens (Human), UniProt Q13490); experiment: BIR binding assay (FRET competition), cIAP1 BIR2
Experimental: as §1

XIAP-BIR3 = XIAP-BIR3 (Homo sapiens (Human), UniProt P98170); experiment: BIR binding assay (FRET competition), XIAP BIR3
Experimental: as §1

Chain of XIAP-BIR3 (P98170 241-356): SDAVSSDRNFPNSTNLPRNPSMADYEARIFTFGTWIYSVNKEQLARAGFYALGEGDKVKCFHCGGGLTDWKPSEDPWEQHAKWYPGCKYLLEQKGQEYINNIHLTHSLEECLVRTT
Chain of cIAP2-BIR3 (Q13489 238-349): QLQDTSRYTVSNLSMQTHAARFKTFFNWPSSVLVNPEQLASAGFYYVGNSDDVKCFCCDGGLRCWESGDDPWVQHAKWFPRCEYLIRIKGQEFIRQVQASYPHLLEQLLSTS
Chain of cIAP1-BIR3 (Q13490 253-363): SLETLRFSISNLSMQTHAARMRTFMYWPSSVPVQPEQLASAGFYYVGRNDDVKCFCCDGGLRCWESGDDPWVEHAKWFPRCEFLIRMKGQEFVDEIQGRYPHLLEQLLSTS
Chain of cIAP1-BIR2 (Q13490 173-257): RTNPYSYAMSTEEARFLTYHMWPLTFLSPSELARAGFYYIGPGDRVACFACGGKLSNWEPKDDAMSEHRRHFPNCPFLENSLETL

Row | SMILES | EC50 [1] [nM] | IC50 (cIAP1-BIR3) [nM] | cIAP1 BIR3 vs BIR2 separation window (cIAP1-BIR3) | IC50 (cIAP2-BIR3) [nM] | IC50 (cIAP1-BIR2) [nM] | IC50 (XIAP-BIR3) [nM]
1 | C[C@@H]1CN(CC(=O)N2CC(C)(C)c3ncc(Cc4ccc(Cl)cc4)cc32)[C@@H](CN2CCO[C@H](COc3cccc(OC[C@@H]4CN(C[C@H]5CN[C@H](C)CN5CC(=O)N5CC(C)(C)c6ncc(Cc7ccc(Cl)cc7)cc65)CCO4)c3)C2)CN1 [Compound 147] | 12.6 to 63.1 | 15.8 to 31.6 | +++ (10,000>FS>1,000) | 15.8 to 31.6 | 3160 to 10000 | 31.6 to 501
2 | Cc1ccc(Cc2cnc3c(c2)N(C(=O)CN2C[C@@H](C)NC[C@@H]2CN2CCO[C@H](COc4cccc(OC[C@@H]5CN(C[C@H]6CN[C@H](C)CN6CC(=O)N6CC(C)(C)c7ncc(Cc8ccc(C)cc8)cc76)CCO5)c4)C2)CC3(C)C)cc1 [Compound 148] | 12.6 to 63.1 | 15.8 to 31.6 | ++++ (FS>10,000) | 15.8 to 31.6 | 10000 to 51300 | 31.6 to 501
3 | C[C@@H]1CN(CC(=O)N2CC(C)(C)c3[nH]c(=O)c(Cc4ccc(F)cc4)cc32)[C@@H](CN2CCO[C@H](COc3ccc(S(=O)(=O)c4ccc(OC[C@@H]5CN(C[C@H]6CN[C@H](C)CN6CC(=O)N6CC(C)(C)c7[nH]c(=O)c(Cc8ccc(F)cc8)cc76)CCO5)cc4)cc3)C2)CN1 [Example 57, 1,1′-(2,2′-((3R,3′R,6R,6′R)-(((2S,2'S)-(((sulfonylbis(4,1-phenylene))bis(oxy))bis(methylene))bis(morpholine-2,4-diyl))bis(methylene))bis(3-methylpiperazine-6,1-diyl))bis(acetyl))bis(6-(4-fluorobenzyl)-3,3-dimethyl-1,2,3,4-tetrahydro-5H-pyrrolo[3,2-b]pyridin-5-one)] | 12.6 to 63.1 | 31.6 to 501 | – | 15.8 to 31.6 | – | 31.6 to 501
4 | C[C@@H]1CN(CC(=O)N2CC(C)(C)c3[nH]c(=O)c(Cc4ccc(F)cc4)cc32)[C@@H](CN2CCO[C@H](COc3ccc(CCc4ccc(OC[C@@H]5CN(C[C@H]6CN[C@H](C)CN6CC(=O)N6CC(C)(C)c7[nH]c(=O)c(Cc8ccc(F)cc8)cc76)CCO5)cc4)cc3)C2)CN1 [Example 58, 1,1′-(2,2′-((3R,3′R,6R,6′R)-(((2S,2'S)-(((ethane-1,2-diylbis(4,1-phenylene))bis(oxy))bis(methylene))bis(morpholine-2,4-diyl))bis(methylene))bis(3-methylpiperazine-6,1-diyl))bis(acetyl))bis(6-(4-fluorobenzyl)-3,3-dimethyl-1,2,3,4-tetrahydro-5H-pyrrolo[3,2-b]pyridin-5-one)] | 12.6 to 63.1 | 15.8 to 31.6 | – | 7.94 to 15.8 | – | 15.8 to 31.6
5 | C[C@@H]1CN(CC(=O)N2CC(C)(C)c3[nH]c(=O)c(Cc4ccc(F)cc4)cc32)[C@@H](CN2CCO[C@H](COc3ccc(C(C)(C)c4ccc(C(C)(C)c5ccc(OC[C@@H]6CN(C[C@H]7CN[C@H](C)CN7CC(=O)N7CC(C)(C)c8[nH]c(=O)c(Cc9ccc(F)cc9)cc87)CCO6)cc5)cc4)cc3)C2)CN1 [Example 62, 1,1′-(2,2′-((3R,3′R,6R,6′R)-(((2S,2'S)-((((1,4-phenylenebis(propane-2,2-diyl))bis(4,1-phenylene))bis(oxy))bis(methylene))bis(morpholine-2,4-diyl))bis(methylene))bis(3-methylpiperazine-6,1-diyl))bis(acetyl))bis(6-(4-fluorobenzyl)-3,3-dimethyl-1,2,3,4-tetrahydro-5H-pyrrolo[3,2-b]pyridin-5-one)] | 12.6 to 63.1 | 31.6 to 501 | – | 31.6 to 501 | – | 31.6 to 501
6 | C[C@@H]1CN(CC(=O)N2CC(C)(C)c3[nH]c(=O)c(Cc4ccc(F)cc4)cc32)[C@@H](CN2CCC(CCCC3CCN(C[C@H]4CN[C@H](C)CN4CC(=O)N4CC(C)(C)c5[nH]c(=O)c(Cc6ccc(F)cc6)cc54)CC3)CC2)CN1 [Example 94, 1,1′-(2,2′-((3R,3′R,6R,6′R)-((propane-1,3-diylbis(piperidine-4,1-diyl))bis(methylene))bis(3-methylpiperazine-6,1-diyl))bis(acetyl))bis(6-(4-fluorobenzyl)-3,3-dimethyl-1,2,3,4-tetrahydro-5H-pyrrolo[3,2-b]pyridin-5-one)] | 0.49 to 12.6 | 7.94 to 15.8 | – | 7.94 to 15.8 | – | 15.8 to 31.6
